What was measured:
[1] = tested on: Spring colzas, Westar cultivar; assay: Greenhouse glyphosate treatment of transformed spring colza; format: in vivo; conditions: 400 g a.s/ha
Excerpt: Spring colzas, Westar cultivar, resistant to glyphosate, were obtained using the method of BOULTER et al., 1990 (Plant Science, 70: 91-99), with the constructs pRPA-BL 488 (dH-At-PTO-aroA-nos), pRPA-BL 502 (CaMV/H-At-PTO- aroA-nos).

tobacco PBD6 plants = assay: Measurement of the glyphosate tolerance of transformed tobacco plants sown in the open; format: in vivo; conditions: untransformed tobacco PBD 6 controls, 0.8 kg/ha, 5-leaf stage, 30 days after the treatment
Experimental: The vector is introduced into the nononcogenic agrobacterium strain EHA 101 (Hood et al., 1987) carrying the cosmid pTVK 291 (Komari et al., 1986). The transformation method is based on the procedure of Horsh et al. (1985).
The regeneration of the tobacco PBD6 (source SEITA France) using foliar explants is carried out on a Murashige and Skoog (MS) basic medium containing 30 g/l of sucrose and […] of kanamycin. The foliar explants are removed from greenhouse- or in vitro-grown plants and transformed according to the foliar disc method (Science 1985, Vol. 227, p. 1229-1231) in three successive stages: the first comprises the induction of shoots on an MS medium supplemented with 30 g of sucrose containing 0.05 mg of naphthylacetic acid (ANA) and 2 mg/l of benzylaminopurine (BAP), for 15 days. The shoots formed during this stage are then developed by culturing on an MS medium supplemented with 30 g/l of sucrose, but not containing hormone, for 10 days. […]
The best plants obtained from the regeneration of transformed tobaccos are selected under a greenhouse after treating the plants, at the 5-leaf stage, […] […] Molecular hybridization analysis enabled the plants having integrated only one copy of the T-DNA to be determined. […]

With `O=C(O)CNCP(=O)(O)O` [glyphosate, N-(phosphonomethyl)glycine] the “effect of glyphosate treatment on nontransgenic plants” value [1] was “destroys nontransgenic plants” and the “effect of glyphosate on control (untransformed) plants (phytotoxicity)” value (tobacco PBD6 plants) was “completely destroyed”.
